# Experiments:
# LucPpy = molecular target: T1, LucPpy (Photinus pyralis, UniProt P08659); experiment: Stability of reagent composition with LucPpy and detergent (RT, pH 7.0); type: biochemical; settings: for Half-life of Luminescence Activity: Common firefly luciferase (P. pyralis); for Average Relative Light Units / Percent of Luminescence Remaining: LucPpy
# T1 construct: purchased Promega E170A
# Excerpt: (§1) The detergents used for inhibition of endogenous ATPase activity in a sample also affect activity of luciferase. […] It is ultimately the extended stability of a reagent composition, comprising an ATPase inhibitor and a luciferase enzyme, which provides a composition useful for measuring ATP, in a sample or samples, over an extended period of time.
# (§2) In this experiment, the stability of a reagent composition comprising wild type LucPpy was compared to the stability of a reagent composition comprising LucPpe2m146 at about 23° C. (room temperature). The various reagent compositions had varying detergent concentrations.
# (§3) Two solutions were created as listed below. One contained the luciferase, luciferin, MgSO4, and buffer (reagent composition). The other solution contained media plus ATP (media solution).
# (§4) 50 μg/ml enzyme (LucPpy is Promega catalog #E170A)
# (§5) Detergent (at various concentrations, see table below)
# (§6) For each reagent composition, all ingredients except the luciferase enzyme were assembled; the enzyme was then added immediately before the first luminescence reading was taken. Immediately after addition of enzyme to each reagent composition and for various timepoints thereafter, 100 μl aliquots of the reagent composition were added to wells of a 96-well microtitre luminometer plate in triplicate. To these were added 100 μl Media Solution containing the ATP. Luminescence was then immediately read on a Dynex MLX microtitreplate luminometer, 0.5 second reads per well. The average relative light unit values as well as the reaction half lives are listed below in Table I and the percent of original luminescence remaining at each timepoint is listed in Table J below. The timepoint at the top of the column indicates the time at which the first rlu measurement for the samples in that column was read. […] Times listed in Table I are the same for Table J. The values for sulfobetaine and for CTAB were generated on different days, they are presented with the control values generated in the same experiment.
# LucPpe2m146 = experiment: Stability of reagent composition with LucPpe2m146 and detergent (RT, pH 7.0); type: biochemical, Photuris pennsylvanica
# Excerpt: as §1, §2, §3, §4, §5, §6
smiles,measurement,setting,value
"CCCCCCCCCCCC[N+](C)(C)Cc1ccccc1.[Br-] [BDDABr, Benzyldimethyldodecylammonium bromide]",Half-life of Luminescence Activity,LucPpy; conc. 0.100,no activity
same,Half-life of Luminescence Activity,LucPpy; conc. 0.500,no activity
same,Average Relative Light Units,"LucPpy; 0.02%, 0.75 min (head r32)",2894.700 rlu
same,Percent of Luminescence Remaining,"LucPpy; 0.02%, 0.75 min (times of Table I r32)",100.00%
same,Average Relative Light Units,"LucPpy; 0.02%, 38 min (head r32)",0.035 rlu
same,Percent of Luminescence Remaining,"LucPpy; 0.02%, 38 min (times of Table I r32)",0.00%
same,Average Relative Light Units,"LucPpy; 0.02%, 70 min (head r32)",0.015 rlu
same,Percent of Luminescence Remaining,"LucPpy; 0.02%, 70 min (times of Table I r32)",0.00%
same,Average Relative Light Units,"LucPpy; 0.02%, 94 min (head r32)",0.016 rlu
same,Average Relative Light Units,"LucPpy; 0.02%, 122 min (head r32)",0.011 rlu
same,Average Relative Light Units,"LucPpy; 0.1%, 0.75 min (head r18)",0.007 rlu
same,Percent of Luminescence Remaining,"LucPpy; 0.1%, 0.75 min (times of Table I r18)",100.00%
same,Average Relative Light Units,"LucPpy; 0.5%, 0.75 min (head r5)",0.001 rlu
same,Percent of Luminescence Remaining,"LucPpy; 0.5%, 0.75 min (times of Table I r5)",100.00%
same,Average Relative Light Units,"LucPpe2m146; LucPpe2m146, 0.02%, 1.0 min (head r67)",26548.60 rlu
same,Percent of Luminescence Remaining,"LucPpe2m146; LucPpe2m146, 0.02%, 1.0 min (times of Table I r67)",100.00%
same,Average Relative Light Units,"LucPpe2m146; LucPpe2m146, 0.02%, 34 min (head r67)",26272.87 rlu
same,Percent of Luminescence Remaining,"LucPpe2m146; LucPpe2m146, 0.02%, 34 min (times of Table I r67)",98.96%
same,Average Relative Light Units,"LucPpe2m146; LucPpe2m146, 0.02%, 65 min (head r67)",25766.43 rlu
same,Percent of Luminescence Remaining,"LucPpe2m146; LucPpe2m146, 0.02%, 65 min (times of Table I r67)",97.05%
same,Average Relative Light Units,"LucPpe2m146; LucPpe2m146, 0.02%, 115 min (head r67)",24155.00 rlu
same,Percent of Luminescence Remaining,"LucPpe2m146; LucPpe2m146, 0.02%, 115 min (times of Table I r67)",90.98%
same,Average Relative Light Units,"LucPpe2m146; LucPpe2m146, 0.02%, 175 min (head r67)",25891.70 rlu
same,Percent of Luminescence Remaining,"LucPpe2m146; LucPpe2m146, 0.02%, 175 min (times of Table I r67)",97.53%
same,Average Relative Light Units,"LucPpe2m146; LucPpe2m146, 0.02%, 238 min (head r67)",24959.1 rlu
same,Percent of Luminescence Remaining,"LucPpe2m146; LucPpe2m146, 0.02%, 238 min (times of Table I r67)",94.01%
same,Average Relative Light Units,"LucPpe2m146; LucPpe2m146, 0.02%, 286 min (head r67)",24510.1 rlu
same,Percent of Luminescence Remaining,"LucPpe2m146; LucPpe2m146, 0.02%, 286 min (times of Table I r67)",92.32%
same,Average Relative Light Units,"LucPpe2m146; LucPpe2m146, 0.1%, 1.0 min (head r54)",29.71 rlu
same,Percent of Luminescence Remaining,"LucPpe2m146; LucPpe2m146, 0.1%, 1.0 min (times of Table I r54)",100.00%
same,Average Relative Light Units,"LucPpe2m146; LucPpe2m146, 0.1%, 34 min (head r54)",66.09 rlu
same,Percent of Luminescence Remaining,"LucPpe2m146; LucPpe2m146, 0.1%, 34 min (times of Table I r54)",222.47%
same,Average Relative Light Units,"LucPpe2m146; LucPpe2m146, 0.1%, 65 min (head r54)",62.19 rlu
same,Percent of Luminescence Remaining,"LucPpe2m146; LucPpe2m146, 0.1%, 65 min (times of Table I r54)",209.32%
same,Average Relative Light Units,"LucPpe2m146; LucPpe2m146, 0.1%, 115 min (head r54)",45.18 rlu
same,Percent of Luminescence Remaining,"LucPpe2m146; LucPpe2m146, 0.1%, 115 min (times of Table I r54)",152.09%
same,Average Relative Light Units,"LucPpe2m146; LucPpe2m146, 0.1%, 175 min (head r54)",33.89 rlu
same,Percent of Luminescence Remaining,"LucPpe2m146; LucPpe2m146, 0.1%, 175 min (times of Table I r54)",114.06%
same,Average Relative Light Units,"LucPpe2m146; LucPpe2m146, 0.1%, 238 min (head r54)",34.46 rlu
same,Percent of Luminescence Remaining,"LucPpe2m146; LucPpe2m146, 0.1%, 238 min (times of Table I r54)",115.98%
same,Average Relative Light Units,"LucPpe2m146; LucPpe2m146, 0.1%, 286 min (head r54)",126.90 rlu
same,Percent of Luminescence Remaining,"LucPpe2m146; LucPpe2m146, 0.1%, 286 min (times of Table I r54)",427.13%
same,Average Relative Light Units,"LucPpe2m146; LucPpe2m146, 0.5%, 15 min (head r41)",2.040 rlu
same,Percent of Luminescence Remaining,"LucPpe2m146; LucPpe2m146, 0.5%, 15 min (times of Table I r41)",100.00%
same,Average Relative Light Units,"LucPpe2m146; LucPpe2m146, 0.5%, 72 min (head r41)",1.140 rlu
same,Percent of Luminescence Remaining,"LucPpe2m146; LucPpe2m146, 0.5%, 72 min (times of Table I r41)",55.90%
same,Average Relative Light Units,"LucPpe2m146; LucPpe2m146, 0.5%, 124 min (head r41)",0.998 rlu
same,Percent of Luminescence Remaining,"LucPpe2m146; LucPpe2m146, 0.5%, 124 min (times of Table I r41)",48.93%
same,Average Relative Light Units,"LucPpe2m146; LucPpe2m146, 0.5%, 190 min (head r41)",0.899 rlu
same,Percent of Luminescence Remaining,"LucPpe2m146; LucPpe2m146, 0.5%, 190 min (times of Table I r41)",44.07%
same,Average Relative Light Units,"LucPpe2m146; LucPpe2m146, 0.5%, 251 min (head r41)",1.042 rlu
same,Percent of Luminescence Remaining,"LucPpe2m146; LucPpe2m146, 0.5%, 251 min (times of Table I r41)",51.10%

# Source: US20030104507A1, “Method for detection of ATP” (priority 2001, published 2003)
